The supplement of paper PMC10307832

What was measured:
Assay in all cases: relative viability (nuclei count vs DMSO), 5 days (fraction); higher = more cells survive
PC-3 [JPC-3] = system: PC-3 [JPC-3]
In short: (§1)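 Values are medians from duplicate plates. Each reflects relative viability, defined as the nuclei count of treated wells over that of vehicle wells. Lung cancer cell lines in 1536-well plates were pin-tool dosed one day after seeding with one drug alone or with a fixed anchor-drug dose plus five library-drug doses (not always all listed) in √10 steps, then fixed, stained and imaged at 4× after 5 days.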

NCI-H3122 = system: NCI-H3122
In short: as §1

COR-L23 = system: COR-L23
In short: as §1

SK-LU-1 = system: SK-LU-1
In short: as §1

A-427 = system: A-427
In short: as §1

HOP-62 = system: HOP-62
In short: as §1

NCI-H1993 = system: NCI-H1993
In short: as §1

NCI-H2228 = system: NCI-H2228
In short: as §1

HARA = system: HARA
In short: as §1

SW 1573 = system: SW 1573
In short: as §1

LXF-289 = system: LXF-289
In short: as §1

NCI-H727 = system: NCI-H727
In short: as §1

NCI-H1792 = system: NCI-H1792
In short: as §1

ABC-1 = system: ABC-1
In short: as §1

NCI-H596 = system: NCI-H596
In short: as §1

EMC-BAC-2 = system: EMC-BAC-2
In short: as §1

NCI-H2009 = system: NCI-H2009
In short: as §1

CC1(C)CCC(c2ccc(Cl)cc2)=C(CN2CCN(c3ccc(C(=O)NS(=O)(=O)c4ccc(N[C@H](CCN5CCOCC5)CSc5ccccc5)c(S(=O)(=O)C(F)(F)F)c4)cc3)CC2)C1 [Navitoclax] + CC(C)C[C@H](NC(=O)[C@H](Cc1ccccc1)NC(=O)c1cnccn1)B(O)O [Bortezomib] (partner 0.002 µM)
relative viability (PC-3 [JPC-3]; first compound 0.005 µM): 0.757 | relative viability (PC-3 [JPC-3]; first compound 0.01581 µM): 0.784 | relative viability (PC-3 [JPC-3]; first compound 0.05 µM): 0.732 | relative viability (PC-3 [JPC-3]; first compound 0.1581 µM): 0.874 | relative viability (PC-3 [JPC-3]; first compound 0.5 µM): 0.822 | relative viability (NCI-H3122; first compound 0.005 µM): 1.04 | relative viability (NCI-H3122; first compound 0.01581 µM): 1.02 | relative viability (NCI-H3122; first compound 0.05 µM): 1.04 | relative viability (NCI-H3122; first compound 0.1581 µM): 1.03 | relative viability (NCI-H3122; first compound 0.5 µM): 1.01 | relative viability (COR-L23; first compound 0.005 µM): 0.964 | relative viability (COR-L23; first compound 0.01581 µM): 1.03 | relative viability (COR-L23; first compound 0.05 µM): 1.15 | relative viability (COR-L23; first compound 0.1581 µM): 0.929 | relative viability (COR-L23; first compound 0.5 µM): 0.975 | relative viability (SK-LU-1; first compound 0.005 µM): 1.19 | relative viability (SK-LU-1; first compound 0.01581 µM): 1.12 | relative viability (SK-LU-1; first compound 0.05 µM): 0.477 | relative viability (SK-LU-1; first compound 0.1581 µM): 1.09 | relative viability (SK-LU-1; first compound 0.5 µM): 0.961 | relative viability (A-427; first compound 0.005 µM): 1.06 | relative viability (A-427; first compound 0.01581 µM): 1.04 | relative viability (A-427; first compound 0.05 µM): 0.819 | relative viability (A-427; first compound 0.1581 µM): 1.02 | relative viability (A-427; first compound 0.5 µM): 0.949 | relative viability (HOP-62; first compound 0.005 µM): 0.575 | relative viability (HOP-62; first compound 0.01581 µM): 0.818 | relative viability (HOP-62; first compound 0.05 µM): 0.82 | relative viability (HOP-62; first compound 0.1581 µM): 0.85 | relative viability (HOP-62; first compound 0.5 µM): 1.1 | relative viability (NCI-H1993; first compound 0.005 µM): 1.11 | relative viability (NCI-H1993; first compound 0.01581 µM): 1.58 | relative viability (NCI-H1993; first compound 0.05 µM): 0.961 | relative viability (NCI-H1993; first compound 0.1581 µM): 0.958 | relative viability (NCI-H1993; first compound 0.5 µM): 1.06 | relative viability (NCI-H2228; first compound 0.005 µM): 0.849 | relative viability (NCI-H2228; first compound 0.01581 µM): 1.33 | relative viability (NCI-H2228; first compound 0.05 µM): 0.726 | relative viability (NCI-H2228; first compound 0.1581 µM): 0.804 | relative viability (NCI-H2228; first compound 0.5 µM): 0.992 | relative viability (HARA; first compound 0.005 µM): 1.04 | relative viability (HARA; first compound 0.01581 µM): 1.11 | relative viability (HARA; first compound 0.05 µM): 0.643 | relative viability (HARA; first compound 0.1581 µM): 1.08 | relative viability (HARA; first compound 0.5 µM): 1.18 | relative viability (SW 1573; first compound 0.005 µM): 1.04 | relative viability (SW 1573; first compound 0.01581 µM): 1.24 | relative viability (SW 1573; first compound 0.05 µM): 0.895 | relative viability (SW 1573; first compound 0.1581 µM): 0.796 | relative viability (SW 1573; first compound 0.5 µM): 1.15 | relative viability (LXF-289; first compound 0.005 µM): 0.989 | relative viability (LXF-289; first compound 0.01581 µM): 1.05 | relative viability (LXF-289; first compound 0.05 µM): 0.928 | relative viability (LXF-289; first compound 0.1581 µM): 0.967 | relative viability (LXF-289; first compound 0.5 µM): 0.959 | relative viability (NCI-H727; first compound 0.005 µM): 0.898 | relative viability (NCI-H727; first compound 0.01581 µM): 0.888 | relative viability (NCI-H727; first compound 0.1581 µM): 1.05 | relative viability (NCI-H727; first compound 0.5 µM): 0.767 | relative viability (NCI-H1792; first compound 0.005 µM): 0.976 | relative viability (NCI-H1792; first compound 0.01581 µM): 1.01 | relative viability (NCI-H1792; first compound 0.05 µM): 0.995 | relative viability (NCI-H1792; first compound 0.1581 µM): 0.964 | relative viability (NCI-H1792; first compound 0.5 µM): 0.934 | relative viability (ABC-1; first compound 0.005 µM): 0.28 | relative viability (ABC-1; first compound 0.01581 µM): 0.286 | relative viability (ABC-1; first compound 0.05 µM): 0.265 | relative viability (ABC-1; first compound 0.1581 µM): 0.254 | relative viability (ABC-1; first compound 0.5 µM): 0.216 | relative viability (NCI-H596; first compound 0.005 µM): 1.22 | relative viability (NCI-H596; first compound 0.01581 µM): 0.81 | relative viability (NCI-H596; first compound 0.05 µM): 0.904 | relative viability (NCI-H596; first compound 0.1581 µM): 1.22 | relative viability (NCI-H596; first compound 0.5 µM): 0.914 | relative viability (EMC-BAC-2; first compound 0.005 µM): 1.04 | relative viability (EMC-BAC-2; first compound 0.01581 µM): 1.19 | relative viability (EMC-BAC-2; first compound 0.05 µM): 1.01 | relative viability (EMC-BAC-2; first compound 0.1581 µM): 1.03 | relative viability (EMC-BAC-2; first compound 0.5 µM): 1.12 | relative viability (NCI-H2009; first compound 0.005 µM): 0.958 | relative viability (NCI-H2009; first compound 0.01581 µM): 1.19 | relative viability (NCI-H2009; first compound 0.05 µM): 0.953 | relative viability (NCI-H2009; first compound 0.1581 µM): 0.979 | relative viability (NCI-H2009; first compound 0.5 µM): 1.02

Oc1nc(-c2ccc(C(F)(F)F)cc2)nc2c1CSCC2 [XAV939] + CC(C)C[C@H](NC(=O)[C@H](Cc1ccccc1)NC(=O)c1cnccn1)B(O)O [Bortezomib] (partner 0.002 µM)
relative viability (PC-3 [JPC-3]; first compound 0.08 µM): 0.839 | relative viability (PC-3 [JPC-3]; first compound 0.253 µM): 0.722 | relative viability (PC-3 [JPC-3]; first compound 0.8 µM): 0.831 | relative viability (PC-3 [JPC-3]; first compound 2.53 µM): 0.755 | relative viability (NCI-H3122; first compound 0.08 µM): 1.09 | relative viability (NCI-H3122; first compound 0.253 µM): 1.01 | relative viability (NCI-H3122; first compound 0.8 µM): 1.03 | relative viability (NCI-H3122; first compound 2.53 µM): 0.944 | relative viability (COR-L23; first compound 0.08 µM): 1.03 | relative viability (COR-L23; first compound 0.253 µM): 0.994 | relative viability (COR-L23; first compound 0.8 µM): 1.05 | relative viability (COR-L23; first compound 2.53 µM): 0.855 | relative viability (SK-LU-1; first compound 0.08 µM): 1.16 | relative viability (SK-LU-1; first compound 0.253 µM): 1.13 | relative viability (SK-LU-1; first compound 0.8 µM): 1.05 | relative viability (SK-LU-1; first compound 2.53 µM): 1.39 | relative viability (A-427; first compound 0.08 µM): 1.06 | relative viability (A-427; first compound 0.253 µM): 0.977 | relative viability (A-427; first compound 0.8 µM): 0.883 | relative viability (A-427; first compound 2.53 µM): 0.769 | relative viability (HOP-62; first compound 0.08 µM): 1.19 | relative viability (HOP-62; first compound 0.253 µM): 0.73 | relative viability (HOP-62; first compound 0.8 µM): 0.988 | relative viability (HOP-62; first compound 2.53 µM): 0.352 | relative viability (NCI-H1993; first compound 0.8 µM): 0.972 | relative viability (NCI-H1993; first compound 2.53 µM): 0.891 | relative viability (NCI-H2228; first compound 0.08 µM): 1.31 | relative viability (NCI-H2228; first compound 0.253 µM): 0.711 | relative viability (NCI-H2228; first compound 0.8 µM): 1.01 | relative viability (NCI-H2228; first compound 2.53 µM): 0.861 | relative viability (HARA; first compound 0.08 µM): 1.35 | relative viability (HARA; first compound 0.253 µM): 1 | relative viability (HARA; first compound 0.8 µM): 1.12 | relative viability (HARA; first compound 2.53 µM): 1 | relative viability (SW 1573; first compound 0.08 µM): 0.994 | relative viability (SW 1573; first compound 0.253 µM): 1.01 | relative viability (SW 1573; first compound 0.8 µM): 1.1 | relative viability (SW 1573; first compound 2.53 µM): 0.676 | relative viability (LXF-289; first compound 0.08 µM): 1.05 | relative viability (LXF-289; first compound 0.253 µM): 0.966 | relative viability (LXF-289; first compound 0.8 µM): 0.994 | relative viability (LXF-289; first compound 2.53 µM): 1.05 | relative viability (NCI-H727; first compound 0.08 µM): 1.05 | relative viability (NCI-H727; first compound 0.253 µM): 0.589 | relative viability (NCI-H727; first compound 0.8 µM): 0.803 | relative viability (NCI-H727; first compound 2.53 µM): 0.957 | relative viability (NCI-H1792; first compound 0.08 µM): 0.945 | relative viability (NCI-H1792; first compound 0.253 µM): 0.943 | relative viability (NCI-H1792; first compound 0.8 µM): 0.973 | relative viability (NCI-H1792; first compound 2.53 µM): 0.869 | relative viability (ABC-1; first compound 0.08 µM): 0.315 | relative viability (ABC-1; first compound 0.253 µM): 0.307 | relative viability (ABC-1; first compound 0.8 µM): 0.254 | relative viability (ABC-1; first compound 2.53 µM): 0.252 | relative viability (NCI-H596; first compound 0.08 µM): 1.11 | relative viability (NCI-H596; first compound 0.253 µM): 1.1 | relative viability (NCI-H596; first compound 0.8 µM): 1.09 | relative viability (NCI-H596; first compound 2.53 µM): 1.3 | relative viability (EMC-BAC-2; first compound 0.08 µM): 1.11 | relative viability (EMC-BAC-2; first compound 0.253 µM): 0.946 | relative viability (EMC-BAC-2; first compound 0.8 µM): 0.997 | relative viability (EMC-BAC-2; first compound 2.53 µM): 0.636 | relative viability (NCI-H2009; first compound 0.08 µM): 1.17 | relative viability (NCI-H2009; first compound 0.253 µM): 0.901 | relative viability (NCI-H2009; first compound 0.8 µM): 0.936 | relative viability (NCI-H2009; first compound 2.53 µM): 0.915
